Assay results as given in BindingDB's records for patent US20250289799 (Jiangsu Yahong Meditech Co., 2025).

Biological target: Ubiquitin carboxyl-terminal hydrolase 1/WD repeat-containing protein 48 (Homo sapiens, UniProt O94782+Q8TAF3)
Assay: In Vitro USP1  Inhibitory Activity
Experimental: Experimental Methods1) Preparation of 1× assay buffer: 1× assay buffer (modified Tris buffer) was prepared;2) Compound dilution: The compound was transferred to the assay plate by Echo.

Sequence of Ubiquitin carboxyl-terminal hydrolase 1/WD repeat-containing protein 48 (O94782 whole entry): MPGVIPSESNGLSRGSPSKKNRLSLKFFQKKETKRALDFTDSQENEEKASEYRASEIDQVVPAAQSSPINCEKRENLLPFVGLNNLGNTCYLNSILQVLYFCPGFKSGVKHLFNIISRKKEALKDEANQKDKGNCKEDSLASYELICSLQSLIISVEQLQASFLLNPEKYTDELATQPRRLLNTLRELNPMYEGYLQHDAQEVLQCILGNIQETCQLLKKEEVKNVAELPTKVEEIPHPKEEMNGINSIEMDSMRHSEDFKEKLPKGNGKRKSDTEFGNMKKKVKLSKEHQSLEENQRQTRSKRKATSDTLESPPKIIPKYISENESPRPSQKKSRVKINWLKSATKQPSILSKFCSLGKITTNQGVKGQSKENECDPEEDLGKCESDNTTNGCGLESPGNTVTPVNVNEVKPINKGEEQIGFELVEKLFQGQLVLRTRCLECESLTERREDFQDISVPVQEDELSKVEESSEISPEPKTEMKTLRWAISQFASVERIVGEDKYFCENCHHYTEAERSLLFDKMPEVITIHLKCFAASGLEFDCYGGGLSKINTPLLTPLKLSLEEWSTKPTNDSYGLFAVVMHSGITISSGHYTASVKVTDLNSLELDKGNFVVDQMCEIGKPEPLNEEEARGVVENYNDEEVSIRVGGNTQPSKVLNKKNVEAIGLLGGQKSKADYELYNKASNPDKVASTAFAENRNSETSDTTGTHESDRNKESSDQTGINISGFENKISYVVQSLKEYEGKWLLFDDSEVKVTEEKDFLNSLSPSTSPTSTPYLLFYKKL
Sequence of Ubiquitin carboxyl-terminal hydrolase 1/WD repeat-containing protein 48 (Q8TAF3 whole entry): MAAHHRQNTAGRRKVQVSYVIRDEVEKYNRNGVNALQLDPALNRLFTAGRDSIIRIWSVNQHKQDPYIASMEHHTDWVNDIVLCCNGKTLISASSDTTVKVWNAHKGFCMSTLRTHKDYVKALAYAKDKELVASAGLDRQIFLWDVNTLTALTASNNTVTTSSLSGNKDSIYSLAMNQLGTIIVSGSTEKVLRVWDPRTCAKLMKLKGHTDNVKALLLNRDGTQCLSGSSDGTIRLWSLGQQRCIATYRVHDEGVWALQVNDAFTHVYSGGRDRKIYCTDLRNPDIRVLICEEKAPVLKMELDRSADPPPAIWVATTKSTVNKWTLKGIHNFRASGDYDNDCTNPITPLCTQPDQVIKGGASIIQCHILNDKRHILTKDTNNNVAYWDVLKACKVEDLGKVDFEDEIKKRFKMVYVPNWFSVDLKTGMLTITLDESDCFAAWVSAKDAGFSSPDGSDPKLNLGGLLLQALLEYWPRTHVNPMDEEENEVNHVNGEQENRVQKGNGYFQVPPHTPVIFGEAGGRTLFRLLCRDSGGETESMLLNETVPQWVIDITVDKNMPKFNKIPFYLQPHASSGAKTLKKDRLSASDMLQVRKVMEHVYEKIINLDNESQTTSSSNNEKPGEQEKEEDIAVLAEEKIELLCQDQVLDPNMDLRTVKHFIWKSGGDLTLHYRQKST

Compared with `COc1cc(CNc2nc(-c3c(OC)ncnc3C3CC3)ncc2OC)ccc1-c1nc(C(F)(F)F)cn1C` [US20250289799, Example 101], `COc1cc(CNc2nc(-c3c(OC)ncnc3C3CC3)ncc2OC)ccc1-n1nc(C(F)(F)F)cc1C` [US20250289799, Example 103] is 1.5-fold lower in IC50: 15 nM for the first, 10 nM for the second.

Going from `COc1cc(-n2nc(C(F)(F)F)cc2C)ccc1CNc1nc(-c2c(OC)ncnc2C2CC2)ncc1OC` [US20250289799, Example 102] to `COc1cc(-n2nc(C(F)(F)F)cc2C)ccc1CNc1nc(-c2c(OC)ncnc2C2CC2)nc2ccoc12` [US20250289799, Example 121], the IC50 rises from 4.4 nM to 8.3 nM (1.9-fold). The first is the more potent here.

First: COc1cnc(-c2c(OC)ncnc2C2CC2)nc1NCC12CCC(c3nc(C(F)(F)F)cn3C)(CC1)CC2 [US20250289799, Example 104]
Second: COc1ncnc(C2CC2)c1-c1ncc(OC(C)C)c(NCC23CCC(c4ccc(C(F)(F)F)cn4)(CC2)CC3)n1 [US20250289799, Example 112]
The IC50 of the first is 30-fold lower: 8.8 nM for the first, 266 nM for the second.

Compared with `COc1cnc(-c2c(OC)ncnc2C2CC2)nc1NCc1ccc(-c2nc(C)cn2C(F)F)cc1` [US20250289799, Example 105], `COc1cnc(-c2c(OC)ncnc2C2CC2)nc1NCc1ccc(-c2nc(C(F)(F)F)cn2C(C)C)cc1` [US20250289799, Example 106] is 21-fold lower in IC50: 60 nM for the first, 2.9 nM for the second.

`COc1cnc(-c2c(OC)ncnc2C2CC2)nc1NCc1ccc(-c2nc(C(F)(F)F)cn2CF)cc1` [US20250289799, Example 107] and `COc1ncnc(C2CC2)c1-c1ncc(Cl)c(NCc2ccc(-c3nc(C(F)(F)F)cn3CF)cc2)n1` [US20250289799, Example 126] are within 1.5-fold of each other in IC50: 16 nM for the first, 13 nM for the second.

`COc1ncnc(C2CC2)c1-c1ncc(OC(C)C)c(N(C)CC2CCN(c3nc(C(F)(F)F)cn3C)CC2)n1` [US20250289799, Example 108] and `COc1ncnc(C2CC2)c1-c1ncc(OC(C)C)c(NCC2CCN(c3nc(C(F)(F)F)cn3C)CC2)n1` [US20250289799, Example 110] are within 1.5-fold of each other in IC50: 19.7 nM for the first, 28.6 nM for the second.

First: COc1ncnc(C2CC2)c1-c1ncc(OC(C)C)c(N(C)Cc2ccc(-c3nc(C(F)(F)F)cn3C)cc2)n1 [US20250289799, Example 109]
Second: COc1ncnc(C2CC2)c1-c1ncc(OC(C)C)c(NCc2ccc(-c3nc(C(F)(F)F)cn3C)cc2)n1 [US20250289799, Example 111]
The IC50 of the first is 2-fold lower: 5.3 nM for the first, 10.4 nM for the second. The first is the more potent here.

Compared with `COc1ncnc(C2CC2)c1-c1nc(NCc2ccc(-c3nc(C(F)(F)F)cn3C)s2)c2occc2n1` [US20250289799, Example 113], `COc1cc(-c2nc(C(F)(F)F)cn2C)ccc1CNc1nc(-c2c(OC)ncnc2C2CC2)nc2ccoc12` [US20250289799, Example 119] is 3-fold lower in IC50: 23 nM for the first, 7.6 nM for the second. The second is the more potent here.

Compared with `COc1ncnc(C2CC2)c1-c1nc(NCc2ccc3c(c2)CCN(C)C3=O)c2occc2n1` [US20250289799, Example 114], `COc1ncnc(C2CC2)c1-c1nc(NCc2ccc3c(c2)CCN(C(C)C)C3=O)c2occc2n1` [US20250289799, Example 115] is 8.4-fold lower in IC50: 648 nM for the first, 77 nM for the second. The second is the more potent here.

`COc1ncnc(C2CC2)c1-c1nc(NCc2ccc(OCc3ccccn3)cc2)c2occc2n1` [US20250289799, Example 116] and `CCOCCOc1ccc(CNc2nc(-c3c(OC)ncnc3C3CC3)nc3ccoc23)cc1` [US20250289799, Example 117] are within 1.5-fold of each other in IC50: 19.4 nM for the first, 13.8 nM for the second.

Going from `COc1ncnc(C2CC2)c1-c1nc(NCc2ccc(OC3CC(OC)C3)cc2)c2occc2n1` (configuration not stated) [US20250289799, Example 118] to `COc1ncnc(C2CC2)c1-c1nc(NCc2ccc(-c3nc(C(F)F)cn3C)cc2)c2occc2n1` [US20250289799, Example 123], the IC50 falls from 58 nM to 20 nM (2.9-fold). The second is the more potent here.

`COc1cc(CNc2nc(-c3c(OC)ncnc3C3CC3)nc3ccoc23)ccc1-c1nc(C(F)(F)F)cn1C` [US20250289799, Example 120] and `COc1cc(CNc2nc(-c3c(OC)ncnc3C3CC3)nc3ccoc23)ccc1-n1nc(C(F)(F)F)cc1C` [US20250289799, Example 122] are within 1.5-fold of each other in IC50: 8.9 nM for the first, 13 nM for the second.

`COc1ncnc(C2CC2)c1-c1ncc(Cl)c(NCc2ccc(-c3nc(C(F)(F)F)cn3C)cc2)n1` [US20250289799, Example 124] and `COc1ncnc(C2CC2)c1-c1ncc(C#N)c(NCc2ccc(-c3nc(C(F)(F)F)cn3C)cc2)n1` [US20250289799, Example 131] are within 1.5-fold of each other in IC50: 6.1 nM for the first, 7.4 nM for the second.

Going from `COc1ncnc(C2CC2)c1-c1ncc(Cl)c(NCc2ccc(-c3nc(C(F)(F)F)cn3C3CC3)cc2)n1` [US20250289799, Example 125] to `C#Cc1cnc(-c2c(OC)ncnc2C2CC2)nc1NCc1ccc(-c2nc(C(F)(F)F)cn2C)cc1` [US20250289799, Example 132], the IC50 rises from 3.1 nM to 6 nM (1.9-fold).

First: [2H]C([2H])([2H])N(Cc1ccc(-c2nc(C(F)(F)F)cn2C2CC2)cc1)c1nc(-c2c(OC)ncnc2C2CC2)ncc1F [US20250289799, Example 128]
Second: [2H]C([2H])([2H])N(Cc1ccc(-c2nc(C(F)(F)F)cn2CF)cc1)c1nc(-c2c(OC)ncnc2C2CC2)ncc1F [US20250289799, Example 130]
The IC50 of the first is 7.3-fold lower: 2.6 nM for the first, 19 nM for the second. The first is the more potent here.

Compared with `COc1ncnc(C2CC2)c1-c1ncc(OC(F)F)c(NCC2CCN(c3nc(C(F)(F)F)cn3C)CC2)n1` [US20250289799, Example 133], `COc1cnc(-c2cccnc2C2CC2)nc1NCC1CCN(c2nc(C(F)(F)F)cn2C)CC1` [US20250289799, Example 152] is 2-fold lower in IC50: 15 nM for the first, 7.5 nM for the second.

Going from `COc1ncnc(C2CC2)c1-c1ncc(OC(F)F)c(NCc2ccc(-c3nc(C(F)(F)F)cn3C)cc2)n1` [US20250289799, Example 134] to `COc1cc(-c2nc(C(F)(F)F)cn2C)ccc1CNc1nc(-c2c(OC)ncnc2C2CC2)ncc1OC(F)F` [US20250289799, Example 136], the IC50 rises from 3.2 nM to 17 nM (5.3-fold). The first is the more potent here.

First: COc1ncnc(C2CC2)c1-c1ncc(OC(F)F)c(NCc2ccc(-n3nc(C(F)(F)F)cc3C)cc2)n1 [US20250289799, Example 135]
Second: COc1cnc(-c2cccnc2C2CC2)nc1NCc1ccc(-n2nc(C(F)(F)F)cc2C)cc1 [US20250289799, Example 154]
The IC50 of the first is 1.9-fold lower: 3.2 nM for the first, 6.2 nM for the second.

Going from `COc1ncnc(C2CC2)c1-c1ncc(CO)c(NCc2ccc(-c3nc(C(F)(F)F)cn3C(C)C)cc2)n1` [US20250289799, Example 137] to `COCc1cnc(-c2c(OC)ncnc2C2CC2)nc1N(C)Cc1ccc(-c2nc(C(F)(F)F)cn2C(C)C)cc1` [US20250289799, Example 138], the IC50 falls from 24 nM to 9 nM (2.7-fold). The second is the more potent here.

First: C#CCN(Cc1ccc(-c2nc(C(F)(F)F)cn2C)cc1)c1nc(-c2c(OC)ncnc2C2CC2)ncc1OC [US20250289799, Example 139]
Second: COc1cnc(-c2c(OC)ncnc2C2CC2)nc1N(Cc1ccc(-c2nc(C(F)(F)F)cn2C)cc1)OC [US20250289799, Example 142]
The IC50 of the first is 4.8-fold lower: 5.2 nM for the first, 25 nM for the second. The first is the more potent here.

Going from `COc1cnc(-c2c(OC)ncnc2C2CC2)nc1N(Cc1ccc(-c2nc(C(F)(F)F)cn2C)cc1)C1CCOC1` (configuration not stated) [US20250289799, Example 140] to `COc1cnc(-c2c(OC)ncnc2C2CC2)nc1N(Cc1ccc(-c2nc(C(F)(F)F)cn2C)cc1)C1CC1` [US20250289799, Example 141], the IC50 falls from 73 nM to 9.5 nM (7.7-fold).

First: COc1cnc(-c2cccc3ccn(C)c23)nc1NCc1ccc(-c2nc(C(F)(F)F)cn2C)cc1 [US20250289799, Example 143]
Second: COc1cnc(-c2cccc3ccn(C)c23)nc1NCc1ccc(-n2nc(C(F)(F)F)cc2C)cc1 [US20250289799, Example 144]
The IC50 of the first is 2.2-fold lower: 31 nM for the first, 68.6 nM for the second.

Going from `COc1cnc(-c2cccc3c2N(C)CC3)nc1NCc1ccc(-c2nc(C(F)(F)F)cn2C)cc1` [US20250289799, Example 145] to `COc1cnc(-c2ccccc2N(C)C)nc1NCc1ccc(-c2nc(C(F)(F)F)cn2C)cc1` [US20250289799, Example 159], the IC50 falls from 19 nM to 1.7 nM (11-fold).

Compared with `COc1cnc(-c2c(C)ncn2C(C)C)nc1NCc1ccc(-c2nc(C(F)(F)F)cn2C)cc1` [US20250289799, Example 147], `COc1cnc(-c2c(Cl)cnn2C(C)C)nc1NCc1ccc(-c2nc(C(F)(F)F)cn2C)cc1` [US20250289799, Example 164] is 330-fold lower in IC50: 364 nM for the first, 1.1 nM for the second.

Going from `Cc1ncn(C(C)C)c1-c1nc(NCc2ccc(-c3nc(C(F)(F)F)cn3C)cc2)c2occc2n1` [US20250289799, Example 149] to `CC(C)n1ncc(Cl)c1-c1nc(NCc2ccc(-c3nc(C(F)(F)F)cn3C)cc2)c2occc2n1` [US20250289799, Example 167], the IC50 falls from 69.2 nM to 0.45 nM (150-fold). The second is the more potent here.

Compared with `Cc1ncn(C(C)C)c1-c1nc(NCC23CCC(c4ccc(C(F)(F)F)cn4)(CC2)CC3)c2occc2n1` [US20250289799, Example 150], `CC(C)n1ncc(Cl)c1-c1nc(NCc2ccc(-c3ccccn3)cc2)c2occc2n1` [US20250289799, Example 166] is 210-fold lower in IC50: 431 nM for the first, 2.1 nM for the second. The second is the more potent here.

Compared with `COc1cnc(-c2cccnc2C2CC2)nc1N(C)CC1CCN(c2ccccn2)CC1` [US20250289799, Example 151], `COc1cnc(-c2c(Cl)cnn2C(C)C)nc1N(C)CC1CCN(c2ccccn2)CC1` [US20250289799, Example 161] is 12-fold lower in IC50: 72 nM for the first, 6 nM for the second. The second is the more potent here.

`COc1cnc(-c2cccnc2C2CC2)nc1NCc1ccc(-c2nc(C(F)(F)F)cn2C)cc1` [US20250289799, Example 153] and `COc1cnc(-c2cccnc2C(C)C)nc1NCc1ccc(-c2nc(C(F)(F)F)cn2C)cc1` [US20250289799, Example 157] are within 1.5-fold of each other in IC50: 3.4 nM for the first, 2.9 nM for the second.

Compared with `c1ccc(-c2ccc(CNc3nc(-c4cccnc4C4CC4)nc4ccoc34)cc2)nc1` [US20250289799, Example 155], `COc1cnc(-c2c(Cl)cnn2C(C)C)nc1NCc1ccc(-c2ccccn2)cc1` [US20250289799, Example 162] is 3.1-fold lower in IC50: 12 nM for the first, 3.9 nM for the second. The second is the more potent here.

Compared with `COc1cnc(-c2cccnc2C(C)C)nc1NCc1ccc(-n2nc(C(F)(F)F)cc2C)cc1` [US20250289799, Example 158], `COc1cnc(-c2ccccc2N(C)C)nc1NCc1ccc(-n2nc(C(F)(F)F)cc2C)cc1` [US20250289799, Example 160] is 1.7-fold higher in IC50: 2.1 nM for the first, 3.6 nM for the second. The first is the more potent here.

First: COc1cnc(-c2c(Cl)cnn2C(C)C)nc1NCC1CCN(c2nc(C(F)(F)F)cn2C)CC1 [US20250289799, Example 163]
Second: COc1cnc(-c2c(Cl)cnn2C(C)C)nc1NCc1ccc(-n2nc(C(F)(F)F)cc2C)cc1 [US20250289799, Example 165]
The IC50 of the first is 1.6-fold higher: 2.3 nM for the first, 1.4 nM for the second. The second is the more potent here.
